{"source": "paper PMC8708666", "about": "“Screening of Self-Assembling of Collagen IV Fragments into Stable Structures Potentially Useful in Regenerative Medicine” (International Journal of Molecular Sciences, 2021)", "key": {"[1]": {"test": "Microscopic examination of peptide aggregates stained with Congo Red", "format": "physicochemical", "conditions": "phosphate buffer pH 7.2, 37.5 °C, 7 days", "experimental": "In addition to CD studies, microscopic studies of peptides 1–33 and 2.1–2.4 stained with Congo Red were also performed. This method of visualization of peptide aggregates is a typical method of studying β-sheet structures in amyloid-type fibers.\nIn order to initiate aggregation, peptides were dissolved in a phosphate buffer solution of pH 7.2 and a concentration of 250 μM (approx. […] of peptide per 1 mL of solution) and incubated at 37.5 °C for 7 days.\nCongo Red solution with a concentration of […] was prepared by dissolving the dye (Sigma-Aldrich) (17.42 mg; 0.025 mmol) in phosphate buffer (pH = 7.2) (10 mL) with the following composition: 100 mM NaH2PO4/Na2HPO4, 137 mM NaCl and 10% EtOH. Ethyl alcohol was added to the buffer to counteract the formation of dye micelles. A sample for microscopic analysis (peptide solution) was centrifuged at 12,000–14,000 rpm to precipitate. In the next step, the solution was decanted and the residue was washed three times with water to remove excess dye. Then, a suspension of the peptide in water was applied to a microscope slide. The samples were dried in a stream of air at room temperature and analyzed under polarized light.\nThe obtained structures were analyzed using a Delta Optical Genetic Pro (Warsaw, Poland) light microscope."}, "[2]": {"test": "CD study of self-organization into structures mimicking the collagen triple helix", "format": "physicochemical", "set-up": "key to Ability to Mimic the Structure of the Collagen Helix: +++: peptides that were able to mimic the spatial structure of collagen at 4 °C, 20 °C and 40 °C; +: a fragment mimicking the spatial structure of collagen only at 4 °C; fragments that do not have the ability to aggregate into stable three-dimensional structures", "conditions": "CD at 4 °C, 20 °C and 40 °C after 24 h incubation; for ability to self-organize into structures mimicking the triple helix (CD): water, 0.1 mg/mL", "description": "The next stage of the research was to check whether peptides 1–33 and 2.1–2.4 have the ability to self-organize, enabling the formation of structures mimicking the structure of the triple helix characteristic of collagens, including the COL domain of type IV collagen. The method of circular dichroism was used in the research, allowing both the secondary and tertiary structure of peptides and proteins to be determined. This method can also be successfully used to observe the process of protein self-organization depending on the temperature or pH. […] A characteristic feature of triple helix collagens is the maximum at about 220 nm and the minimum at about 190–200 nm. Based on literature data, the CD spectrum corresponding to the triple helix characteristic of collagens as a function of temperature was simulated (Figure 9j). The main factors stabilizing the collagen triple helix are the hydrogen bonds between the hydrogen atom of the amino group and the oxygen atom of the carbonyl group. These are relatively weak bonds, and their stability depends, inter alia, on temperature. Therefore, the stability of the collagen triple helix changes with the change of this factor. Due to the fact that the studied collagen fragments can be potentially used in regenerative medicine, it was necessary to check the stability of the structure in the temperature range as close as possible to physiological conditions. Therefore, the tests were performed at 4 °C, 20 °C and 40 °C after incubation for 24 h. The incubation process was to enable the self-assembly to form structures that mimic the triple helix of collagen. […] In the spectra, the presence of a characteristic maximum at a wavelength of about 220 nm and a minimum at about 190–200 nm was observed. However, the most important fact is that these peptides formed stable three-dimensional structures even at 40 °C.\nThe CD spectra were recorded using a Jasco J-1500 instrument (Jasco, Cracow, Poland) and quartz cuvettes with 1 mm optical path lengths. The measurements were acquired in the range of 190–270 nm at temperatures of 4 °C, 20 °C and 40 °C by taking points every 5 nm, with a scan rate of 100 nm per min, an integration time of 1 s, and a bandwidth of 4 nm. The samples were prepared in MiliQ purity water with a final concentration of 0.1 mg/mL. Samples before CD measurements were incubated for 24 h. at 4 °C, 20 °C and 40 °C using a Lauda thermostat."}, "[3]": {"biological_target": "α1β1 integrin (ITGα1β1) (Homo sapiens, UniProt P05556+P56199)", "sequence (P56199 29-1141 limits assumed)": "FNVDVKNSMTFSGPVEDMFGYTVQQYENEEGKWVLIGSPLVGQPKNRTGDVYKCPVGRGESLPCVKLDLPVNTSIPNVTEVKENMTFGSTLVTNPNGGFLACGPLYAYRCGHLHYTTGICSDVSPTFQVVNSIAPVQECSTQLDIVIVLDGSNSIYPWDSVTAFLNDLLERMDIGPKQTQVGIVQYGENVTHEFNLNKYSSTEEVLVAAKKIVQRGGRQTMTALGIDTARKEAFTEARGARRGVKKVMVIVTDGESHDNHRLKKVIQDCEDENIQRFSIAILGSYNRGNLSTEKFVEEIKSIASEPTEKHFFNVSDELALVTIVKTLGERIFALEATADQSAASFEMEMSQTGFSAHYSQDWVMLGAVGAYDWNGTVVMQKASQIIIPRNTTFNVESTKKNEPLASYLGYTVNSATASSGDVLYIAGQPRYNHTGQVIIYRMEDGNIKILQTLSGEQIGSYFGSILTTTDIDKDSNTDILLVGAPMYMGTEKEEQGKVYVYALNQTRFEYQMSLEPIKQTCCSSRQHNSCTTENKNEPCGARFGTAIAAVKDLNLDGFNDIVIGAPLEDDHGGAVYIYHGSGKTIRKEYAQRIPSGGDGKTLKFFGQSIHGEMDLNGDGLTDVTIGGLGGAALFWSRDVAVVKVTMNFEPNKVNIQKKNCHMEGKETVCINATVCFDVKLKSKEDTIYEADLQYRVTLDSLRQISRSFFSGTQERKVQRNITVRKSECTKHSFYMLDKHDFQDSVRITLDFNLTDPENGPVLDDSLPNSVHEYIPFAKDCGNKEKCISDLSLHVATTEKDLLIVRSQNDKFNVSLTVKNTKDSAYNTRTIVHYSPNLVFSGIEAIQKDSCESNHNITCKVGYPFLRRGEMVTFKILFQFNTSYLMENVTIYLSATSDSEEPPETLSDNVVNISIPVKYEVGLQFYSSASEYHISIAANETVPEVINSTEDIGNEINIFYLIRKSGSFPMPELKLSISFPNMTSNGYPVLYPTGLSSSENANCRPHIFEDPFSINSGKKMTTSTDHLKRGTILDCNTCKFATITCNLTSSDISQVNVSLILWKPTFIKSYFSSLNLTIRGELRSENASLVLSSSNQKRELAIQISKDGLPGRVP", "sequence (P05556 21-728 limits assumed)": "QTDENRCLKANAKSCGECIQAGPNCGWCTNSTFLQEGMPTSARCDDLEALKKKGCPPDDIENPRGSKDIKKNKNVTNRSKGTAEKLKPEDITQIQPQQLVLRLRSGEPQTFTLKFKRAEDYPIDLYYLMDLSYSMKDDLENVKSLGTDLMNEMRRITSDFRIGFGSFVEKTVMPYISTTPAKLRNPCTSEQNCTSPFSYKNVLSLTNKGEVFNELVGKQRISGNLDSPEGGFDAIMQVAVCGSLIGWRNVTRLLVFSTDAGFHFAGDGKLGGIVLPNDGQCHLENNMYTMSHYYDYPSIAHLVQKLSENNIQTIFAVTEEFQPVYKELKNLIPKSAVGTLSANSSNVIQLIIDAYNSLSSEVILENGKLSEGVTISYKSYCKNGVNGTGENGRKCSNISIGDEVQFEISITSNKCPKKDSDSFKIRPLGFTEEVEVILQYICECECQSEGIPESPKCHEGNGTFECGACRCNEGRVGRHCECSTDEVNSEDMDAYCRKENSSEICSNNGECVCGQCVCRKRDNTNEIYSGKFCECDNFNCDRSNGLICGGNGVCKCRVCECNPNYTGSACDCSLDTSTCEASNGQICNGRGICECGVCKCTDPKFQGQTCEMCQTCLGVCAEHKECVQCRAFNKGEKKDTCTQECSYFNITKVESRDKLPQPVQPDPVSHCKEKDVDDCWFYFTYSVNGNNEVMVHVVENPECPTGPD", "test": "MST determination of Kd for labeled α1β1 integrin and collagen IV fragments", "format": "binding", "protocol": "The tests were performed using the Microscale Thermophoresis (MST) technique [86]. […] For MST experiment His-tagged ITGα1β1 was labeled using a fluorescent dye, which enable a site-specific and stable noncovalent fluorescence labeling of polyhistidine-tagged proteins. The concentrations of labeled ITGα1β1 were kept constant at 25 nM, whereas the peptides were used as titration ligands with increasing concentrations.\nThe α1β1 integrin concentration was kept constant (25 nM), while the non-labeled binding partner collagen IV peptides were used at increasing concentrations as the titration ligand. The MST measurement was performed at 80% or 100% (for peptide 4) LED power and medium (40%) MST power. An MST-on time 4 s was used for analysis and a Kd (µM ± µM confidence) was derived for these interactions (n ≥ 3 independent measurements, error bars represent standard deviation).\n• Preparation of Materials for MST Analysis • (1) ITGα1β1—a solution with a concentration of 9.3 µM was prepared. For this, 50 µL of sterile PBS (filtered through a 0.22 µm filter) was added to the protein. […] The fluorescent dye OG488 (ex = 498 nm, ex = 526 nm) provide an efficient method for site-specific and stable noncovalent fluorescence labeling of polyhistidine-tagged proteins. • (3) A 0.05% Tween20 solution in PBS (PBST) was prepared. • Testing the Affinity of the Dye to the Protein […]"}}}
{"substance": "^1001GAPGLPGIIK^1010 [Peptide 24]", "values": [{"measurement": "structure of aggregates stained with Congo Red", "setting": "[1]", "value": "fibrous structures resembling amyloid structures"}, {"measurement": "ability to self-organize into structures mimicking the triple helix (CD)", "setting": "[2]", "value": "not found"}]}
{"substance": "^471LKGIKGDSGF^480 [Peptide 9]", "values": [{"measurement": "structure of aggregates stained with Congo Red", "setting": "[1]", "value": "fibrous structures resembling amyloid structures"}, {"measurement": "ability to self-organize into structures mimicking the triple helix (CD)", "setting": "[2]", "value": "not found"}]}
{"substance": "^891LSGPKGEKGS^900 [Peptide 20]", "values": [{"measurement": "structure of aggregates stained with Congo Red", "setting": "[1]", "value": "fibrous structures resembling amyloid structures"}, {"measurement": "ability to self-organize into structures mimicking the triple helix (CD)", "setting": "[2]", "value": "not found"}]}
{"substance": "^841PGKKGTRGKK^850 [Peptide 18]", "values": [{"measurement": "structure of aggregates stained with Congo Red", "setting": "[1]", "value": "fibrous structures"}, {"measurement": "ability to self-organize into structures mimicking the triple helix (CD)", "setting": "[2]", "value": "only at 4 °C"}]}
{"substance": "^641PGQQGLPGSK^650 [Peptide 12]", "values": [{"measurement": "structure of aggregates stained with Congo Red", "setting": "[1]", "value": "fibrous structures"}, {"measurement": "ability to self-organize into structures mimicking the triple helix (CD)", "setting": "[2]", "value": "only at 4 °C"}]}
{"substance": "^1101IGNIGFPGNK^1110 [Peptide 26]", "values": [{"measurement": "structure of aggregates stained with Congo Red", "setting": "[1]", "value": "only amorphous structures"}, {"measurement": "ability to self-organize into structures mimicking the triple helix (CD)", "setting": "[2]", "value": "have the ability to self-organize to form structures that mimic the structure of the triple helix"}]}
{"substance": "^951PVGIPSPRRP^960 [Peptide 22]", "values": [{"measurement": "structure of aggregates stained with Congo Red", "setting": "[1]", "value": "fibrous structures resembling amyloid structures"}, {"measurement": "ability to self-organize into structures mimicking the triple helix (CD)", "setting": "[2]", "value": "not found"}]}
{"substance": "^671PGFPGPKGSR^680 [Peptide 13]", "values": [{"measurement": "structure of aggregates stained with Congo Red", "setting": "[1]", "value": "fibrous structures"}, {"measurement": "ability to self-organize into structures mimicking the triple helix (CD)", "setting": "[2]", "value": "only at 4 °C"}]}
{"substance": "^1311KGMRGEPGFM^1320 [Peptide 29]", "values": [{"measurement": "structure of aggregates stained with Congo Red", "setting": "[1]", "value": "fibrous structures resembling amyloid structures"}, {"measurement": "ability to self-organize into structures mimicking the triple helix (CD)", "setting": "[2]", "value": "not found"}]}
{"substance": "^311GPPGQQGKKG^320 [Peptide 7]", "values": [{"measurement": "structure of aggregates stained with Congo Red", "setting": "[1]", "value": "fibrous structures"}, {"measurement": "ability to self-organize into structures mimicking the triple helix (CD)", "setting": "[2]", "value": "only at 4 °C"}]}
{"substance": "^721LPGFPGLPGK^730 [Peptide 15]", "values": [{"measurement": "structure of aggregates stained with Congo Red", "setting": "[1]", "value": "only amorphous structures"}, {"measurement": "Ability to Mimic the Structure of the Collagen Helix", "setting": "[2]", "value": "+++"}, {"measurement": "ability to self-organize into structures mimicking the triple helix (CD)", "setting": "[2]", "value": "have the ability to self-organize to form structures that mimic the structure of the triple helix"}, {"measurement": "Kd", "setting": "[3]; labeled His-tagged ITGα1β1 25 nM, 22 °C, MST-on time 4 s, Kd ± confidence", "value": "no binding"}, {"measurement": "ability to bind to ITGα1β1 (in words)", "setting": "[3]; labeled ITGα1β1 25 nM", "value": "no binding"}]}
{"substance": "^1211PGIGIGAPGK^1220 [Peptide 27]", "values": [{"measurement": "structure of aggregates stained with Congo Red", "setting": "[1]", "value": "fibrous structures resembling amyloid structures"}, {"measurement": "ability to self-organize into structures mimicking the triple helix (CD)", "setting": "[2]", "value": "not found"}]}
{"substance": "^1446MPGQSMRVGYTL^1457 [Peptide 2.2]", "values": [{"measurement": "structure of aggregates stained with Congo Red", "setting": "[1]", "value": "fibrous structures"}, {"measurement": "ability to self-organize into structures mimicking the triple helix (CD)", "setting": "[2]", "value": "only at 4 °C"}]}
{"substance": "^81PGLLGPYGPK^90 [Peptide 3]", "values": [{"measurement": "structure of aggregates stained with Congo Red", "setting": "[1]", "value": "fibrous structures resembling amyloid structures"}, {"measurement": "ability to self-organize into structures mimicking the triple helix (CD)", "setting": "[2]", "value": "not found"}]}
{"substance": "^711GFPGPRGEKG^720 [Peptide 14]", "values": [{"measurement": "structure of aggregates stained with Congo Red", "setting": "[1]", "value": "only amorphous structures"}, {"measurement": "ability to self-organize into structures mimicking the triple helix (CD)", "setting": "[2]", "value": "have the ability to self-organize to form structures that mimic the structure of the triple helix"}]}
{"substance": "^1221PGLRGQKGDR^1230 [Peptide 28]", "values": [{"measurement": "structure of aggregates stained with Congo Red", "setting": "[1]", "value": "fibrous structures"}, {"measurement": "ability to self-organize into structures mimicking the triple helix (CD)", "setting": "[2]", "value": "only at 4 °C"}]}
{"substance": "^821GIKGKSGLPG^830 [Peptide 17]", "values": [{"measurement": "structure of aggregates stained with Congo Red", "setting": "[1]", "value": "fibrous structures"}, {"measurement": "ability to self-organize into structures mimicking the triple helix (CD)", "setting": "[2]", "value": "only at 4 °C"}]}
{"substance": "^1453VGYTLVKHSQSE^1464 [Peptide 2.3]", "values": [{"measurement": "structure of aggregates stained with Congo Red", "setting": "[1]", "value": "fibrous structures"}, {"measurement": "ability to self-organize into structures mimicking the triple helix (CD)", "setting": "[2]", "value": "only at 4 °C"}]}
{"substance": "^41CFPEKGARGR^50 [Peptide 2]", "values": [{"measurement": "structure of aggregates stained with Congo Red", "setting": "[1]", "value": "only amorphous structures"}, {"measurement": "ability to self-organize into structures mimicking the triple helix (CD)", "setting": "[2]", "value": "have the ability to self-organize to form structures that mimic the structure of the triple helix"}]}
{"substance": "^1521HYARRNDKSY^1530 [Peptide 32]", "values": [{"measurement": "structure of aggregates stained with Congo Red", "setting": "[1]", "value": "fibrous structures resembling amyloid structures"}, {"measurement": "ability to self-organize into structures mimicking the triple helix (CD)", "setting": "[2]", "value": "not found"}]}
{"substance": "^961MSNLWLKGDK^970 [Peptide 23]", "values": [{"measurement": "structure of aggregates stained with Congo Red", "setting": "[1]", "value": "fibrous structures resembling amyloid structures"}, {"measurement": "ability to self-organize into structures mimicking the triple helix (CD)", "setting": "[2]", "value": "not found"}]}
{"substance": "^21AGEKSYGKPC^30 [Peptide 1]", "values": [{"measurement": "structure of aggregates stained with Congo Red", "setting": "[1]", "value": "fibrous structures resembling amyloid structures"}, {"measurement": "ability to self-organize into structures mimicking the triple helix (CD)", "setting": "[2]", "value": "not found"}]}
{"substance": "^1520CHYARRNDKSYW^1531 [Peptide 2.4]", "values": [{"measurement": "structure of aggregates stained with Congo Red", "setting": "[1]", "value": "fibrous structures"}, {"measurement": "ability to self-organize into structures mimicking the triple helix (CD)", "setting": "[2]", "value": "only at 4 °C"}]}
{"substance": "^23EKSYGKPCGGQDC^35 [Peptide 2.1]", "values": [{"measurement": "structure of aggregates stained with Congo Red", "setting": "[1]", "value": "fibrous structures resembling amyloid structures"}, {"measurement": "ability to self-organize into structures mimicking the triple helix (CD)", "setting": "[2]", "value": "not found"}]}
{"substance": "^781PGLKGVHGKP^790 [Peptide 16]", "values": [{"measurement": "structure of aggregates stained with Congo Red", "setting": "[1]", "value": "fibrous structures resembling amyloid structures"}, {"measurement": "ability to self-organize into structures mimicking the triple helix (CD)", "setting": "[2]", "value": "not found"}]}
{"substance": "^1661AGQLHTRVSR^1670 [Peptide 33]", "values": [{"measurement": "structure of aggregates stained with Congo Red", "setting": "[1]", "value": "fibrous structures"}]}
{"substance": "^541KGKKGEPILS^550 [Peptide 11]", "values": [{"measurement": "structure of aggregates stained with Congo Red", "setting": "[1]", "value": "fibrous structures resembling amyloid structures"}, {"measurement": "ability to self-organize into structures mimicking the triple helix (CD)", "setting": "[2]", "value": "not found"}]}
{"substance": "^1451MRVGYTLVKH^1460 [Peptide 31]", "values": [{"measurement": "structure of aggregates stained with Congo Red", "setting": "[1]", "value": "fibrous structures resembling amyloid structures"}, {"measurement": "ability to self-organize into structures mimicking the triple helix (CD)", "setting": "[2]", "value": "not found"}]}
{"substance": "^251GFPKGKKGSK^260 [Peptide 6]", "values": [{"measurement": "structure of aggregates stained with Congo Red", "setting": "[1]", "value": "only amorphous structures"}, {"measurement": "ability to self-organize into structures mimicking the triple helix (CD)", "setting": "[2]", "value": "have the ability to self-organize to form structures that mimic the structure of the triple helix"}]}
{"substance": "^921LKGIPGSTGK^930 [Peptide 21]", "values": [{"measurement": "structure of aggregates stained with Congo Red", "setting": "[1]", "value": "fibrous structures resembling amyloid structures"}, {"measurement": "ability to self-organize into structures mimicking the triple helix (CD)", "setting": "[2]", "value": "not found"}]}
